Data set [1] is described as follows: Pharmacokinetics in rats, i.v. The format is in vivo. Conditions: rat, 1 μmol/kg i.v., n = 5; for AUC(0-t): read-out: AUC(0-t) (converted); for MRT last: read-out: MRT0-t (converted); for Vd: read-out: Vss. Here is the method: SD Rats were randomly divided into three groups (n = 5). […] All blood samples were immediately centrifuged at 5000 rpm for 5 min at room temperature, and the plasma obtained was stored at −20 °C before analysis. To the rat plasma (100 μL) was added 10 μL internal standard (80 ~ 100 ng/ml Carbamazepine), followed by mixing with 200 μL methanol with vortexing for 1 min. At this stage, certain amounts of proteins may precipitate out, thus this mixture was centrifuged at 12,000 rpm for 5 min at room temperature to achieve complete separation. The 20 μl supernatant was injected into a HPLC (Symbiosis, Spark, Holland; column: 50 mm × 2.1 mm, 5 μm, Agilent Eclipse Plus) –MS/MS system (ABI 4000 Q-Trap triple quadrupole mass spectrometer) equipped with electrospray ionization (ESI) source in the positive ion mode (Foster City, USA). The HPLC elution gradient was as follows: 0–0.5 min, 5–5% (B); 0.5–3 min, 5–95% (B); 3–4 min, 95–95% (B); 4–4.06 min, 95–5% (B); 4.06–6 min, 5–5% (B); the flow-rate was 0.4 ml/min; A was 0.1% formic acid/Waterl, B was 0.1% formic acid/methanol. The MS parameters were: CUR10Psi; Ion Spray Voltage (IS) 5500v; Collision activated dissociation (CAD) High, Gas1 = 50 psi, Gas2 = 50 psi, TEM = 500 °C.
All three peptides remained stable in plasma during three freeze/thaw cycles, at room temperature for at least 2 h. The supernatant of plasma samples were also found to be stable for at least 24 h at 10 °C in the autosampler.
The statistical significance of the difference among pharmacokinetic parameters was determined using the mean comparison Student’s t-test, and the resulting P values were lower than 0.05, which is considered to be statistically significant.

The next data set addresses T1, trypsin (Bos taurus, UniProt P00760).
T1 construct: purchased Roche Corp (Indianapolis, USA)
T1 sequence (P00760 24-246): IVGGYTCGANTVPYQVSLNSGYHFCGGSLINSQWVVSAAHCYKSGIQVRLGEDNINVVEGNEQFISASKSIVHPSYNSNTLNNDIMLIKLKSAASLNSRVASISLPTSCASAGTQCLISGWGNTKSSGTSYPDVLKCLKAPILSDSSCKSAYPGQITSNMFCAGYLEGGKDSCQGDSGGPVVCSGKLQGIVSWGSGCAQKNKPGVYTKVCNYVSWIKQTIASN
The data set is described as follows: Degradation mediated by trypsin (HPLC). The data set is classed as in vitro ADME. Conditions: trypsin (119 ng/μL) in Tris-HCl buffer, pH 8.5, 119 μg/ml trypsin, peptide 0.79 mM, 37 °C, read-out: peptide intact after incubation with trypsin. The text has this: The degradation of peptides mediated by trypsin can be effectively monitored by HPLC analysis. […] The detector wavelength was set at 214 nm.

The nature of data set [2]: Bleeding time test (BT) in rats. The data set is classed as in vivo, rat. Conditions: 30 min after administration. Here is the method: Bleeding time was determined as reported previously. Male SD rats (180–220 g) were divided into 6 groups (n = 8). […] Thirty minutes after the injection, bleeding was induced by tail transection of the anesthetized rat with a size 21 disposable scalpel blade 2 mm from the tail tip. The bleeding tail was wiped with filter paper every 30 s, and the bleeding time was recorded when no blood was observed on the filter paper.

Data set [3] concerns the target T2, human thrombin (Homo sapiens, UniProt P00734).
T2 construct: purchased National Institute for the Control of Pharmaceutical and Biological Products (Beijing, China)
The data set is described as follows: Degradation mediated by human thrombin (HPLC). The format is in vitro ADME. Conditions: human thrombin (69 NIH/mL) in Tris-HCl buffer, pH 8, 69 NIH/ml human thrombin, peptide 0.41 mM, 37 °C, read-out: peptide remained after reaction with human thrombin. The procedure:
The catalytic cleavage of peptides mediated by thrombin was also examined using the same method. Specifically, a peptide solution (0.41 mM) was first incubated with thrombin (69 NIH/mL) in Tris-HCl buffer (70 mM Tris HCl, NaCl 50 mM, pH = 8.0) at 37 °C.

The target in the next data set is T3, rat thrombin (Rattus norvegicus, UniProt P18292).
T3 construct: purchased Sigma
The data set is described as follows: Inhibition of rat thrombin-catalyzed hydrolysis of Chromozym TH. The data set is classed as biochemical. Conditions: 25 °C, pH 7.4.

Data set [4] has as its target T2, human thrombin. The data set can be described thus: Inhibition of human thrombin-catalyzed hydrolysis of Chromozym TH. The data set is classed as biochemical. To be noted: 25 °C, pH 7.4. Here is the method:
The inhibition constant (Ki) was determined as reported previously. A 0.05 mL of peptide solution (concentration 10, 25, 50, 100, 150, 500 and 1000 nM, respectively) was added to 0.4 mL mixture of Hepes buffer (10 mM Hepes, 10 mM Tris, 0.1 M NaCl, 0.1% PEG 6000, pH 7.4) and bovine or human thrombin (0.25 NIH). The resulting solution was incubated at 25 °C for 2 min, followed by the addition of 0.05 mL Chromozym TH (concentration 25, 33, 40, 50, 100, 125, 200, 330, 500, and […], respectively). The absorbance at 405 nm was measured using a Beckman DU640 spectrometer. The inhibition constant (Ki) was determined using the following equation (Eq.1) originally developed for competitive inhibition processes[25]:
Herein, S is the initial substrate concentration; I is the inhibitor concentration; v is the initial steady-state velocity; Vmax is the limiting maximal velocity; and Km is the dissociation constant of the complex.

The subject of data set [5] is human thrombin. The data set can be described thus: thrombin (69 NIH/mL) in Tris-HCl buffer (70 mM Tris HCl, NaCl 50 mM, pH = 8.0). To be noted: 37 °C, up to 5 h.
Data set [6] has as its system Trypsin (modified sequencing grade). The data set can be described thus: trypsin (119 ng/μL) in the Tris-HCl buffer (90 mM, pH = 8.5). Conditions: 37 °C, up to 5 h.

Like-named read-outs stand apart in the source and are kept apart here. Where a SMILES comes first, the peptide text is derived from it. Where no end group is shown, it is not given here. [ ]: non-standard residue; d: D form. The star is where a group is joined. Stearoyl = CCCCCCCCCCCCCCCCCC(=O)*

One may read the AUC(0-inf) as the area under the concentration-time curve extrapolated to infinity. The low end stands for less exposure, the high end for more exposure. Usually Cmax stands for the peak of the concentration-time curve. By clearance is commonly meant the rate of elimination divided by the concentration. Higher therefore signals efficient removal. The term AUC(0-t) denotes exposure summed from dosing to a finite time, without extrapolation to infinity. For orientation: Ki means the dissociation constant of the complex between target and ligand, obtained from inhibition or displacement. A lower Ki goes with tighter binding. Regarding `CC[C@H](C)[C@H](NC(=O)[C@H](CCC(=O)O)NC(=O)[C@H](CCC(=O)O)NC(=O)[C@H](Cc1ccccc1)NC(=O)[C@H](CC(=O)O)NC(=O)CNC(=O)[C@H](CC(N)=O)NC(=O)CNC(=O)CNC(=O)CNC(=O)CNC(=O)[C@@H]1CCCN1C(=O)[C@H](CCCNC(=N)N)NC(=O)[C@@H]1CCCN1C(=O)[C@H](N)Cc1ccccc1)C(=O)N1CCC[C@H]1C(=O)N[C@@H](CCC(=O)O)C(=O)N[C@@H](CCC(=O)O)C(=O)N[C@@H](Cc1ccc(O)cc1)C(=O)N[C@@H](CC(C)C)C(=O)O` [Hirulog-1, reference compound], in data set [1] (SD, plasma, iv, 1 umol/kg), the AUC(0-inf) is 0.415 µM·h, the Cmax amounted to 3100 ± 1100 nM, the clearance came to 42.6 ± 5.2 mL/min/kg and the AUC(0-t) is 0.395 µM·h. Moreover, in data set [1] (SD, plasma, iv, 1 umol/kg), the MRT last was 12.1 min and the Vd stood at 0.522 ± 0.151 L/kg. In addition, on trypsin, the remaining at 3 h, 0.79 mM was 10% and the remaining at 5 h, 0.79 mM amounted to 6%. Moreover, the “bleeding time (BT)” value in data set [2] (8 mg/kg) worked out at 525.00 ± 48.11 s. Besides, on human thrombin [3], the remaining at 3 h, 0.41 mM turned out to be 57% and the remaining at 5 h, 0.41 mM was determined as 23%. This compound also registered a Ki at rat thrombin of 20.5 ± 0.62 nM.
A word on the half-life: it is the time in which the quantity being followed falls by half. Low values mean fast loss, high ones slow loss. As for `CC[C@H](C)[C@H](NC(=O)[C@@H]1CCCN1C(=O)[C@H](CCC(=O)O)NC(=O)[C@H](Cc1ccccc1)NC(=O)[C@H](CC(=O)O)NC(=O)CNC(=O)[C@H](CCC(N)=O)NC(=O)CNC(=O)CNC(=O)CNC(=O)CNC(=O)[C@@H]1CCCN1C(=O)[C@H](CCCNC(=N)N)NC(=O)[C@@H]1CCCN1C(=O)[C@H](N)Cc1ccccc1)C(=O)N1CCC[C@H]1C(=O)N[C@@H](CCC(=O)O)C(=O)N[C@@H](CC(=O)O)C(=O)N[C@@H](C)C(=O)N[C@@H](Cc1ccc(O)cc1)C(=O)N[C@@H](CC(=O)O)C(=O)N[C@@H](CCC(=O)O)C(N)=O` [Peptide 1] (H-[dF]PRPGGGGQGDFEPIPEDAYDE-NH2), in data set [1] (SD, plasma, iv, 1 umol/kg), the AUC(0-inf) was 0.432 µM·h and the AUC(0-t) was 0.428 µM·h. In addition, in data set [1] (in vivo, iv, 1 umol/kg), the Cmax was found to be 2300 ± 400 nM, the clearance was 36.4 ± 3.6 mL/min/kg, the MRT last was 13.9 min and the Vd is 0.504 ± 0.0217 L/kg. In data set [1] (in vivo, iv, 1 umol/kg), this compound came in with a half-life of less than 16 min. Moreover, the T1/2 in data set [1] worked out at 13.5 ± 2.6 min. At trypsin, the remaining at 3 h, 0.79 mM came out at 5% and the remaining at 5 h, 0.79 mM is 1%. At human thrombin [3], the remaining at 3 h, 0.41 mM worked out at 70% and the remaining at 5 h, 0.41 mM came to 46%. The compound also showed a Ki at rat thrombin of 13.4 ± 0.46 nM.
Turning to `CCCCCCCCCCCCCCCCCC(=O)NCCCC[C@H](NC(=O)[C@@H]1CCCN1C(=O)[C@H](CCCNC(=N)N)NC(=O)[C@@H]1CCCN1C(=O)[C@H](N)Cc1ccccc1)C(=O)NCC(=O)NCC(=O)NCC(=O)N[C@@H](CCC(N)=O)C(=O)NCC(=O)N[C@@H](CC(=O)O)C(=O)N[C@@H](Cc1ccccc1)C(=O)N[C@@H](CCC(=O)O)C(=O)N1CCC[C@H]1C(=O)N[C@H](C(=O)N1CCC[C@H]1C(=O)N[C@@H](CCC(=O)O)C(=O)N[C@@H](CC(=O)O)C(=O)N[C@@H](C)C(=O)N[C@@H](Cc1ccc(O)cc1)C(=O)N[C@@H](CC(=O)O)C(=O)N[C@@H](CCC(=O)O)C(N)=O)[C@@H](C)CC` [Peptide S1] (H-[dF]PRPK(Stearoyl)GGGQGDFEPIPEDAYDE-NH2; N-terminus assumed), the Ki at human thrombin [4] was found to be 19.5 ± 0.4 nM; on rat thrombin, 37.4 ± 1.16 nM.
For `CCCCCCCCCCCCCCCCCC(=O)NCCCC[C@H](NC(=O)CNC(=O)CNC(=O)CNC(=O)[C@@H]1CCCN1C(=O)[C@H](CCCNC(=N)N)NC(=O)[C@@H]1CCCN1C(=O)[C@H](N)Cc1ccccc1)C(=O)N[C@@H](CCC(N)=O)C(=O)NCC(=O)N[C@@H](CC(=O)O)C(=O)N[C@@H](Cc1ccccc1)C(=O)N[C@@H](CCC(=O)O)C(=O)N1CCC[C@H]1C(=O)N[C@H](C(=O)N1CCC[C@H]1C(=O)N[C@@H](CCC(=O)O)C(=O)N[C@@H](CC(=O)O)C(=O)N[C@@H](C)C(=O)N[C@@H](Cc1ccc(O)cc1)C(=O)N[C@@H](CC(=O)O)C(=O)N[C@@H](CCC(=O)O)C(N)=O)[C@@H](C)CC` [Peptide S3] (H-[dF]PRPGGGK(Stearoyl)QGDFEPIPEDAYDE-NH2; N-terminus assumed), the Ki came out at 11 ± 0.15 nM on human thrombin [4] and 54.5 ± 0.82 nM at rat thrombin.
As to D-FPRP-GGGG-QGDFEEIPEEYL, the cleaved bond entry (in the data set on human thrombin [5]; in data set [6]) was “Arg-Pro” in each case.
Turning to D-FPRP-GGGG-QGDFEPIPEDAYDE^*, the cleaved bond entry (with human thrombin [5]; in data set [6]) was “Arg-Pro” each time.
In the case of “D-FPRP-GK(stearic acid)GG-QGDFEPIPEDAYDE^* ([dF]PRPGK(Stearoyl)GGQGDFEPIPEDAYDE-NH2)”, the cleaved bond result (in the data set with human thrombin [5]; in data set [6]) was “Arg-Pro” throughout.
Consider heparin [reference compound], for which the “bleeding time (BT)” value in data set [2] (200 IU/kg) came to 401 ± 83.23 s.

(Values after PMC4585835 (Scientific Reports, 2015).)
